Patent publication US11618767B2, “Carboxy substituted glucocorticoid receptor agonists” (Eli Lilly and Company, priority 2021, dated 2023)

Biological target: T1, GR-LBD (Homo sapiens, UniProt P04150)
T1 construct: purchased Life Technologies A15899
T1 sequence (P04150 524-758 limits assumed): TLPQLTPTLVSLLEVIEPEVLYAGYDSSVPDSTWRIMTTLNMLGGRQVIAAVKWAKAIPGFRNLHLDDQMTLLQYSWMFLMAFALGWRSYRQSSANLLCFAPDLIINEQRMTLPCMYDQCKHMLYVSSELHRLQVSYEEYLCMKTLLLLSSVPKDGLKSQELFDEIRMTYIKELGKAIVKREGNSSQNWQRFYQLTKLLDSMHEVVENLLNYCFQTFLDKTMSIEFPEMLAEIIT
Assay: hGR CoActivator Recruitment Assay (LanthaScreen TR-Fret GR Coactivator Assay)
Format: biochemical
Details: TR-FRET emission ratio 520/490; 10-point serial dilution, top concentration 200 nM; Fluorescein-SRC1-4 coactivator peptide; read-out: relative IC50
Experimental: hGR CoActivator Recruitment Assay The activity of glucocorticoid compounds was measured using the LanthaScreen TR-Fret GR Coactivator Assay from Life Technologies (A15899). The compounds were acoustically transferred to an assay plate in a 3-fold 10-point serial dilution with a top concentration of 200 nM. Ten microliters of a 2× solution of GR-LBD was added to the compound plate and incubated for 10 min. Then ten microliters of a 2× solution of Fluoresein-SRC1-4 and Tb labelled anti-GST antibody was added to the plate. The plate was incubated in the dark for two hours and then read on an Envision plate reader, with excitation at 340 nm and emission at 520 nm (Fluorescein) and 490 nm (Terbium). The emission ratio of 520/490 was analyzed in Genedata. To obtain percent activity, the data was compared to a negative control of DMSO and positive control of […] dexamethasone.

| SMILES | IC50 |
| --- | --- |
| C[C@]12C=CC(=O)C=C1CC[C@@H]1[C@@H]2[C@@H](O)C[C@@]2(C)[C@H]1C[C@H]1O[C@@H](c3ccc(Cc4ccc(C(=O)O)cc4)cc3F)O[C@]12C(=O)CO (single isomer, unassigned) [Example 1] | 2.14 nM |
| C[C@]12C=CC(=O)C=C1CC[C@@H]1[C@@H]2[C@@H](O)C[C@@]2(C)[C@H]1C[C@H]1O[C@H](c3ccc(Cc4ccc(C(=O)O)cc4)cc3F)O[C@]12C(=O)CO (single isomer, unassigned) [Example 2] | 4.5 nM |
| Cc1ccc(OCc2cccc(C(=O)O)c2)c(F)c1[C@@H]1O[C@@H]2C[C@H]3[C@@H]4CCC5=CC(=O)C=C[C@]5(C)[C@H]4[C@@H](O)C[C@]3(C)[C@]2(C(=O)CO)O1 [Example 3, 3-((2-Fluoro-3-((6aR,6bS,7S,8aS,8bS,10R,11aR,12aS,12bS)-7-hydroxy-8b-(2-hydroxyacetyl)-6a, 8a-dimethyl-4-oxo-2,4,6a,6b,7,8,8a,8b,11a,12,12a,12b-dodecahydro-1H-naphtho[2′,1′:4,5]indeno[1,2-d][1,3]dioxol-10-yl)-4-methylphenoxy)methyl)benzoic Acid] | < 200 nM |
| Cc1ccc(OCc2cccc(C(=O)O)c2)c(F)c1[C@H]1O[C@@H]2C[C@H]3[C@@H]4CCC5=CC(=O)C=C[C@]5(C)[C@H]4[C@@H](O)C[C@]3(C)[C@]2(C(=O)CO)O1 [Example 4, 3-((2-Fluoro-3-((6aR,6bS,7S,8aS,8bS,10 S,11aR,12a5,12bS)-7-hydroxy-8b-(2-hydroxyacetyl)-6a, 8a-dimethyl-4-oxo-2,4,6a,6b,7,8,8a, 8b,11a,12,12a,12b-dodecahydro-1H-naphtho[2′,1′:4,5]indeno[1,2-d][1,3]dioxol-10-yl)-4-methylphenoxy)methyl)benzoic Acid] | < 200 nM |
| C[C@]12C=CC(=O)C=C1CC[C@@H]1[C@@H]2[C@@H](O)C[C@@]2(C)[C@H]1C[C@H]1O[C@@H](c3ccc(Oc4ccc(C(=O)O)cc4)cc3)O[C@]12C(=O)CO [Example 5] | < 200 nM |
| C[C@]12C=CC(=O)C=C1CC[C@@H]1[C@@H]2[C@@H](O)C[C@@]2(C)[C@H]1C[C@H]1O[C@H](c3ccc(Oc4ccc(C(=O)O)cc4)cc3)O[C@]12C(=O)CO [Example 6] | < 200 nM |
| C[C@]12C=CC(=O)C=C1CC[C@@H]1[C@@H]2[C@@H](O)C[C@@]2(C)[C@H]1C[C@H]1O[C@@H](c3ccc(Oc4cccc(C(=O)O)c4)cc3)O[C@]12C(=O)CO [Example 7] | < 200 nM |
| C[C@]12C=CC(=O)C=C1CC[C@@H]1[C@@H]2[C@@H](O)C[C@@]2(C)[C@H]1C[C@H]1O[C@H](c3ccc(Oc4cccc(C(=O)O)c4)cc3)O[C@]12C(=O)CO [Example 8] | < 200 nM |
| C[C@]12C=CC(=O)C=C1CC[C@@H]1[C@@H]2[C@@H](O)C[C@@]2(C)[C@H]1C[C@H]1O[C@@H](c3ccc(Cc4cccc(C(=O)O)c4)cc3F)O[C@]12C(=O)CO [Example 9] | < 200 nM |
| C[C@]12C=CC(=O)C=C1CC[C@@H]1[C@@H]2[C@@H](O)C[C@@]2(C)[C@H]1C[C@H]1O[C@H](c3ccc(Cc4cccc(C(=O)O)c4)cc3F)O[C@]12C(=O)CO [Example 10] | > 200 nM |
| COc1ccc(OCc2cccc(C(=O)O)c2)c(F)c1[C@@H]1O[C@@H]2C[C@H]3[C@@H]4CCC5=CC(=O)C=C[C@]5(C)[C@H]4[C@@H](O)C[C@]3(C)[C@]2(C(=O)CO)O1 [Example 11] | < 200 nM |
| COc1ccc(OCc2cccc(C(=O)O)c2)c(F)c1[C@H]1O[C@@H]2C[C@H]3[C@@H]4CCC5=CC(=O)C=C[C@]5(C)[C@H]4[C@@H](O)C[C@]3(C)[C@]2(C(=O)CO)O1 [Example 12] | < 200 nM |
| COc1ccc(OCc2ccccc2C(=O)O)c(F)c1[C@@H]1O[C@@H]2C[C@H]3[C@@H]4CCC5=CC(=O)C=C[C@]5(C)[C@H]4[C@@H](O)C[C@]3(C)[C@]2(C(=O)CO)O1 [Example 13] | > 200 nM |
| COc1ccc(OCc2ccccc2C(=O)O)c(F)c1[C@H]1O[C@@H]2C[C@H]3[C@@H]4CCC5=CC(=O)C=C[C@]5(C)[C@H]4[C@@H](O)C[C@]3(C)[C@]2(C(=O)CO)O1 [Example 14] | < 200 nM |
| Cc1ccc(OCc2ccccc2C(=O)O)c(F)c1[C@H]1O[C@@H]2C[C@H]3[C@@H]4CCC5=CC(=O)C=C[C@]5(C)[C@H]4[C@@H](O)C[C@]3(C)[C@]2(C(=O)CO)O1 [Example 15] | < 200 nM |
